{"source": "patent US8192962B2", "about": "“Processes for detecting toxic substances” (Daikin Industries, Ltd., priority 2001, dated 2012)", "system": "Transport facilitation protein genes", "experiment": "DNA chip mRNA expression in yeast, transport facilitation protein genes (Table 5)", "type": "cell-based, Saccharomyces cerevisiae S288C", "summary_of_the_method": "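In this screen, yeast in logarithmic growth are challenged for two hours with a toxic substance at a non-lethal inhibitory concentration. Their mRNA, converted to Cy3- or Cy5-labeled cDNA, hybridizes at 65° C. to a chip spanning every yeast gene, and expression is expressed as a ratio to untreated cells.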", "data": [{"smiles": "[Cl][Pb][Cl]", "note": "[(4), PbCl2]", "values": [{"measurement": "The level of expressed mRNA in the presence of chemical substance/The level of expressed mRNA in the absence of chemical substance", "setting": "yeast gene YGR260W", "result": 0.8}, {"measurement": "The level of expressed mRNA in the presence of chemical substance/The level of expressed mRNA in the absence of chemical substance", "setting": "yeast gene YGR281W", "result": 2.2}, {"measurement": "The level of expressed mRNA in the presence of chemical substance/The level of expressed mRNA in the absence of chemical substance", "setting": "yeast gene YHL035C", "result": 1.9}, {"measurement": "The level of expressed mRNA in the presence of chemical substance/The level of expressed mRNA in the absence of chemical substance", "setting": "yeast gene YHL040C", "result": 0.4}, {"measurement": "The level of expressed mRNA in the presence of chemical substance/The level of expressed mRNA in the absence of chemical substance", "setting": "yeast gene YHL047C", "result": 1.0}, {"measurement": "The level of expressed mRNA in the presence of chemical substance/The level of expressed mRNA in the absence of chemical substance", "setting": "yeast gene YHR026W", "result": 1.0}, {"measurement": "The level of expressed mRNA in the presence of chemical substance/The level of expressed mRNA in the absence of chemical substance", "setting": "yeast gene YHR092C", "result": 2.5}, {"measurement": "The level of expressed mRNA in the presence of chemical substance/The level of expressed mRNA in the absence of chemical substance", "setting": "yeast gene YHR094C", "result": 1.6}, {"measurement": "The level of expressed mRNA in the presence of chemical substance/The level of expressed mRNA in the absence of chemical substance", "setting": "yeast gene YHR175W", "result": 1.5}, {"measurement": "The level of expressed mRNA in the presence of chemical substance/The level of expressed mRNA in the absence of chemical substance", "setting": "yeast gene YIL006W", "result": 2.9}, {"measurement": "The level of expressed mRNA in the presence of chemical substance/The level of expressed mRNA in the absence of chemical substance", "setting": "yeast gene YIL022W", "result": 1.6}, {"measurement": "The level of expressed mRNA in the presence of chemical substance/The level of expressed mRNA in the absence of chemical substance", "setting": "yeast gene YIL056W", "result": 1.4}, {"measurement": "The level of expressed mRNA in the presence of chemical substance/The level of expressed mRNA in the absence of chemical substance", "setting": "yeast gene YIL088C", "result": 1.3}, {"measurement": "The level of expressed mRNA in the presence of chemical substance/The level of expressed mRNA in the absence of chemical substance", "setting": "yeast gene YJL034W", "result": 0.8}, {"measurement": "The level of expressed mRNA in the presence of chemical substance/The level of expressed mRNA in the absence of chemical substance", "setting": "yeast gene YJL212C", "result": 0.5}, {"measurement": "The level of expressed mRNA in the presence of chemical substance/The level of expressed mRNA in the absence of chemical substance", "setting": "yeast gene YJL219W", "result": 1.6}, {"measurement": "The level of expressed mRNA in the presence of chemical substance/The level of expressed mRNA in the absence of chemical substance", "setting": "yeast gene YJR077C", "result": 1.6}, {"measurement": "The level of expressed mRNA in the presence of chemical substance/The level of expressed mRNA in the absence of chemical substance", "setting": "yeast gene YJR106W", "result": 1.1}, {"measurement": "The level of expressed mRNA in the presence of chemical substance/The level of expressed mRNA in the absence of chemical substance", "setting": "yeast gene YJR121W", "result": 1.0}, {"measurement": "The level of expressed mRNA in the presence of chemical substance/The level of expressed mRNA in the absence of chemical substance", "setting": "yeast gene YKL016C", "result": 1.7}, {"measurement": "The level of expressed mRNA in the presence of chemical substance/The level of expressed mRNA in the absence of chemical substance", "setting": "yeast gene YKL146W", "result": 0.9}, {"measurement": "The level of expressed mRNA in the presence of chemical substance/The level of expressed mRNA in the absence of chemical substance", "setting": "yeast gene YKR039W", "result": 1.7}, {"measurement": "The level of expressed mRNA in the presence of chemical substance/The level of expressed mRNA in the absence of chemical substance", "setting": "yeast gene YKR067W", "result": 2.5}, {"measurement": "The level of expressed mRNA in the presence of chemical substance/The level of expressed mRNA in the absence of chemical substance", "setting": "yeast gene YLL028W", "result": 0.5}, {"measurement": "The level of expressed mRNA in the presence of chemical substance/The level of expressed mRNA in the absence of chemical substance", "setting": "yeast gene YLR081W", "result": 3.6}, {"measurement": "The level of expressed mRNA in the presence of chemical substance/The level of expressed mRNA in the absence of chemical substance", "setting": "yeast gene YLR295C", "result": 1.7}, {"measurement": "The level of expressed mRNA in the presence of chemical substance/The level of expressed mRNA in the absence of chemical substance", "setting": "yeast gene YLR348C", "result": 1.2}, {"measurement": "The level of expressed mRNA in the presence of chemical substance/The level of expressed mRNA in the absence of chemical substance", "setting": "yeast gene YLR378C", "result": 0.5}, {"measurement": "The level of expressed mRNA in the presence of chemical substance/The level of expressed mRNA in the absence of chemical substance", "setting": "yeast gene YMR011W", "result": 5.5}, {"measurement": "The level of expressed mRNA in the presence of chemical substance/The level of expressed mRNA in the absence of chemical substance", "setting": "yeast gene YMR162C", "result": 2.0}, {"measurement": "The level of expressed mRNA in the presence of chemical substance/The level of expressed mRNA in the absence of chemical substance", "setting": "yeast gene YMR203W", "result": 1.4}, {"measurement": "The level of expressed mRNA in the presence of chemical substance/The level of expressed mRNA in the absence of chemical substance", "setting": "yeast gene YNL055C", "result": 2.0}, {"measurement": "The level of expressed mRNA in the presence of chemical substance/The level of expressed mRNA in the absence of chemical substance", "setting": "yeast gene YNL259C", "result": 1.2}, {"measurement": "The level of expressed mRNA in the presence of chemical substance/The level of expressed mRNA in the absence of chemical substance", "setting": "yeast gene YNR072W", "result": 0.7}, {"measurement": "The level of expressed mRNA in the presence of chemical substance/The level of expressed mRNA in the absence of chemical substance", "setting": "yeast gene YOL119C", "result": 2.3}, {"measurement": "The level of expressed mRNA in the presence of chemical substance/The level of expressed mRNA in the absence of chemical substance", "setting": "yeast gene YOL156W", "result": 1.1}, {"measurement": "The level of expressed mRNA in the presence of chemical substance/The level of expressed mRNA in the absence of chemical substance", "setting": "yeast gene YOL163W", "result": 3.3}, {"measurement": "The level of expressed mRNA in the presence of chemical substance/The level of expressed mRNA in the absence of chemical substance", "setting": "yeast gene YOR035C", "result": 1.2}, {"measurement": "The level of expressed mRNA in the presence of chemical substance/The level of expressed mRNA in the absence of chemical substance", "setting": "yeast gene YOR130C", "result": 1.0}, {"measurement": "The level of expressed mRNA in the presence of chemical substance/The level of expressed mRNA in the absence of chemical substance", "setting": "yeast gene YOR153W", "result": 1.1}, {"measurement": "The level of expressed mRNA in the presence of chemical substance/The level of expressed mRNA in the absence of chemical substance", "setting": "yeast gene YOR273C", "result": 1.0}, {"measurement": "The level of expressed mRNA in the presence of chemical substance/The level of expressed mRNA in the absence of chemical substance", "setting": "yeast gene YOR316C", "result": 1.5}, {"measurement": "The level of expressed mRNA in the presence of chemical substance/The level of expressed mRNA in the absence of chemical substance", "setting": "yeast gene YOR328W", "result": 1.0}, {"measurement": "The level of expressed mRNA in the presence of chemical substance/The level of expressed mRNA in the absence of chemical substance", "setting": "yeast gene YOR332W", "result": 1.0}, {"measurement": "The level of expressed mRNA in the presence of chemical substance/The level of expressed mRNA in the absence of chemical substance", "setting": "yeast gene YOR348C", "result": 2.0}, {"measurement": "The level of expressed mRNA in the presence of chemical substance/The level of expressed mRNA in the absence of chemical substance", "setting": "yeast gene YPL036W", "result": 0.9}, {"measurement": "The level of expressed mRNA in the presence of chemical substance/The level of expressed mRNA in the absence of chemical substance", "setting": "yeast gene YPL134C", "result": 1.6}, {"measurement": "The level of expressed mRNA in the presence of chemical substance/The level of expressed mRNA in the absence of chemical substance", "setting": "yeast gene YPL271W", "result": 1.2}, {"measurement": "The level of expressed mRNA in the presence of chemical substance/The level of expressed mRNA in the absence of chemical substance", "setting": "yeast gene YPR192W", "result": 5.0}, {"measurement": "The level of expressed mRNA in the presence of chemical substance/The level of expressed mRNA in the absence of chemical substance", "setting": "yeast gene YPR194C", "result": 2.9}]}]}
